Assay results from patent publication US9724344B2, “Enhanced delivery of drug compositions to treat life threatening infections” (BOARD OF REGENTS, THE UNIVERSITY OF TEXAS SYSTEM, priority 2004, dated 2017).

Assays:
[1] = Dissolution testing, United States Pharmacopeia 24 Type 2 apparatus (Examples 19-23); assay type: physicochemical; conditions: Avg
Procedure: For Examples 19-23, dissolution testing is performed on the samples using a United States Pharmacopeia 24 Type 2 apparatus (Distek Dissolution System […] with a TCS0200C heater/circulator; Crescent Scientific Pvt. Ltd.; Goregaon-East, Mumbai, India).

IL-12p70 = experiment: ELISA of BAL supernatant for IL-12 elevation (inflammatory response); assay type: in vivo, mice; conditions: pulmonary administration, compared to excipients alone and saline
Procedure: FIG. 5 is a chart depicting lung concentration levels of IL-12p70 for an embodiment of the present invention. Mean IL-12p70 concentrations measured according to Example 32 via ELISA assay of the positive control, negative control and BAL supernatants of sacrificed mice. Surgery was performed on sacrificed mice to expose the pleural cavity and trachea at the throat. A small incision was cut into the trachea and a cannula consisting of a 23 gauge needle with a sheath of plastic tubing (0.037″ outside diameter (OD) and 0.025″ ID) was inserted through the incision to the base of the trachea and clamped to seal the opening. An aliquot (0.75 mL) of phosphate buffered saline was instilled through the cannula into the lungs and then removed to wash the bronchial and alveolar surfaces. This process was repeated for a total of three washes. The phosphate buffered saline containing cells was placed into centrifuge vials and centrifuged at 300 rpm (MiniSpin Plus. Eppendorf International, Hamburg, Del.). The supernatant was removed leaving the collected cells in the pellet. The supernatant from the BAL (Bronchoalveolar Lavage) was analyzed by enzyme-linked immunosorbent assay (ELISA) for IL-12 elevation (n=2 per sample tested).

airway macrophages = experiment: Macrophage uptake of ITZ dosed via pulmonary administration; assay type: in vivo; conditions: samples taken on days 1, 3, 8 and 12
Text: Cells (airway macrophages) were recovered from the lung and subjected to drug extraction and analyzed by mass spectroscopy for confirmation of ITZ presence in the macrophage.

[2] = cited from earlier work

Structure (SMILES) | Percent Dissolved ([1]; 2 minutes) [%] | Percent Dissolved ([1]; 5 minutes) [%] | Percent Dissolved ([1]; 10 minutes) [%] | Percent Dissolved ([1]; 15 minutes) [%] | Percent Dissolved ([1]; 20 minutes) [%] | Percent Dissolved ([1]; 25 minutes) [%] | Percent Dissolved ([1]; 30 minutes) [%] | Percent Dissolved ([1]; 60 minutes) [%] | Percent Dissolved ([1]; 120 minutes) [%] | IL-12 elevation in BAL supernatant (IL-12p70) | ITZ presence in airway macrophages (mass spectroscopy) (airway macrophages) | aqueous solubility [2] [µg/mL]
CCC(C)n1ncn(-c2ccc(N3CCN(c4ccc(OCC5COC(Cn6cncn6)(c6ccc(Cl)cc6Cl)O5)cc4)CC3)cc2)c1=O (stereo not drawn) [Comparative Example 25] | 3.1 | 4.8 | 9.1 | 12.7 | 15.5 | 18.2 | 19.7 | 38.9 | 100.0 | – | – | –
CCC(C)n1ncn(-c2ccc(N3CCN(c4ccc(OCC5COC(Cn6cncn6)(c6ccc(Cl)cc6Cl)O5)cc4)CC3)cc2)c1=O (stereo not drawn) [ITZ, itraconazole] | – | – | – | – | – | – | – | – | – | does not result in IL-12 elevation | all showed the presence of ITZ | < 1
